The text below walks through data of patent US20250186437A1, “CARBOLINE COMPOUNDS AND USE THEREOF” (PTC Therapeutics, Inc., priority 2021, published 2025).

In general, IC50 refers to the concentration that gives 50% inhibition.

In the assay the test system is MOLM-13 cells. Nature of the assay: MOLM-13 Cell Proliferation Assay (indicator of DHODH inhibition). Format: cell-based. The note with it: Homo sapiens, 72 Hours of culture, CellTiter-Glo, no uridine. Put shortly:
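Proliferation readout via CellTiter-Glo luminescence after 72 h compound treatment (37 °C, 5% CO2, 0.5% DMSO) of MOLM-13 cells seeded at 10^4 per well in RPMI 1640/10% FBS, used as a DHODH-inhibition indicator since these cells rely on de novo pyrimidine synthesis.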
Background: Cellular ATP, detected with luciferase, serves as a proxy for viable cell number.

In the case of `Cc1ccc(C2c3[nH]c4ccc(Cl)c(F)c4c3CCN2c2nc(C)cc(C#N)n2)cc1` (centres unmarked) [Compound 110, 2-[6-chloro-5-fluoro-1-(4-methylphenyl)-1,3,4,9-tetrahydro-2H-pyrido[3,4-b]indol-2-yl]-6-methylpyrimidine-4-carbonitrile], half-maximal inhibition (IC50) required 2.8 nM. The same measure for `FC(F)(F)c1cc(C(F)(F)F)nc(N2CCc3c([nH]c4ccc(-n5nccn5)cc34)C2c2cnc(N3CCOCC3)nc2)n1` (centres unmarked) [Compound 482, 2-[4,6-bis(trifluoromethyl)pyrimidin-2-yl]-1-[2-(morpholin-4-yl)pyrimidin-5-yl]-6-(2H-1,2,3-triazol-2-yl)-2,3,4,9-tetrahydro-1H-pyrido[3,4-b]indole]: 0.8 nM. With `CC(C)c1ccc(C2c3[nH]c4cc(F)c(Cl)cc4c3CCN2c2ncc(C(F)(F)F)cn2)cc1` (centres unmarked) [Compound 99, 6-chloro-7-fluoro-1-[4-(propan-2-yl)phenyl]-2-[5-(trifluoromethyl)pyrimidin-2-yl]-2,3,4,9-tetrahydro-1H-pyrido[3,4-b]indole], the IC50 was 14 nM. The compound `Cc1ccc(C2c3[nH]c4ccc(Cl)c(F)c4c3CCN2c2nccc(C#N)n2)c(F)c1F` (centres unmarked) [Compound 198, 2-[6-chloro-1-(2,3-difluoro-4-methylphenyl)-5-fluoro-1,3,4,9-tetrahydro-2H-pyrido[3,4-b]indol-2-yl]pyrimidine-4-carbonitrile] yielded an IC50 of 1.2 nM.

Regarding `Cc1ccc(C2c3[nH]c4ccc(Cl)cc4c3CCN2c2nc(C(F)(F)F)nc(C(F)(F)F)n2)c(F)c1F` (centres unmarked) [Compound 497, 2-[4,6-bis(trifluoromethyl)-1,3,5-triazin-2-yl]-6-chloro-1-(2,3-difluoro-4-methylphenyl)-2,3,4,9-tetrahydro-1H-pyrido[3,4-b]indole], the IC50 is 0.2 nM. `Cc1ccc(C2c3[nH]c4ccc(Cl)cc4c3CCN2c2nc(C)nc(C(F)(F)F)n2)cc1` (centres unmarked) [Compound 437, 6-chloro-1-(4-methylphenyl)-2-[4-methyl-6-(trifluoromethyl)-1,3,5-triazin-2-yl]-2,3,4,9-tetrahydro-1H-pyrido[3,4-b]indole] showed a 50% inhibitory concentration (IC50) of 1.8 nM. For `Fc1ccc(C2c3[nH]c4cc(F)c(Cl)cc4c3CCN2c2nccc(C(F)(F)F)n2)cc1` (centres unmarked) [Compound 24, 6-chloro-7-fluoro-1-(4-fluorophenyl)-2-[4-(trifluoromethyl)pyrimidin-2-yl]-2,3,4,9-tetrahydro-1H-pyrido[3,4-b]indole], the midpoint of inhibition, the IC50, lay at 17.6 nM. The compound `Fc1cncc(C2c3[nH]c4cc(F)c(Cl)cc4c3CCN2c2nccc(C(F)(F)F)n2)c1` (centres unmarked) [Compound 145, 6-chloro-7-fluoro-1-(5-fluoropyridin-3-yl)-2-[4-(trifluoromethyl)pyrimidin-2-yl]-2,3,4,9-tetrahydro-1H-pyrido[3,4-b]indole] displayed an IC50 of 17.2 nM. `Cc1nc(C)nc(N2CCc3c([nH]c4ccc(Cl)cc34)C2c2ccc(N3CCOCC3)nc2F)n1` (centres unmarked) [Compound 459, 6-chloro-2-(4,6-dimethyl-1,3,5-triazin-2-yl)-1-[2-fluoro-6-(morpholin-4-yl)pyridin-3-yl]-2,3,4,9-tetrahydro-1H-pyrido[3,4-b]indole] registered an IC50 of 3 nM. For the compound `Cc1ccnc(N2CCc3c([nH]c4cc(F)c(Cl)cc34)C2c2cnc(N(C)C)nc2)n1` (centres unmarked) [Compound 94, 5-[6-chloro-7-fluoro-2-(4-methylpyrimidin-2-yl)-2,3,4,9-tetrahydro-1H-pyrido[3,4-b]indol-1-yl]-N,N-dimethylpyrimidin-2-amine], the IC50 came out at 22.2 nM. Regarding `Cc1nc(N2CCc3c([nH]c4ccc(Cl)cc34)C2c2cnc(N3CCOCC3)nc2)nc(C(F)(F)F)n1` (centres unmarked) [Compound 440, 6-chloro-2-[4-methyl-6-(trifluoromethyl)-1,3,5-triazin-2-yl]-1-[2-(morpholin-4-yl)pyrimidin-5-yl]-2,3,4,9-tetrahydro-1H-pyrido[3,4-b]indole], half-maximal inhibition (IC50) required 2.1 nM. Against the preceding compound, the IC50 is about 11-fold lower.

Compound `Cc1cc(C)nc(N2CCc3c([nH]c4cc(F)c(Cl)cc34)C2c2ccc(C#N)cc2)n1` (centres unmarked) [Compound 93, 4-[6-chloro-2-(4,6-dimethylpyrimidin-2-yl)-7-fluoro-2,3,4,9-tetrahydro-1H-pyrido[3,4-b]indol-1-yl]benzonitrile] had an IC50 of 9.7 nM. The same measure for `Cc1cc(C)nc(N2CCc3c([nH]c4cc(F)c(Cl)cc34)C2c2ccc(CCCCO)cc2)n1` (centres unmarked) [Compound 245, 4-{4-[6-chloro-2-(4,6-dimethylpyrimidin-2-yl)-7-fluoro-2,3,4,9-tetrahydro-1H-pyrido[3,4-b]indol-1-yl]phenyl}butan-1-ol]: 3.6 nM. `Fc1ccc(C2c3[nH]c4ccc(Cl)c(F)c4c3CCN2c2ncc(F)cn2)cc1` (centres unmarked) [Compound 51, 6-chloro-5-fluoro-1-(4-fluorophenyl)-2-(5-fluoropyrimidin-2-yl)-2,3,4,9-tetrahydro-1H-pyrido[3,4-b]indole] gave an IC50 of 21.6 nM. This IC50 is about 6-fold higher than that of the compound before. For `Cc1nc(N2CCc3c([nH]c4ccc(Cl)cc34)C2c2ccc(N3CCOCC3)nc2)ncc1F` (centres unmarked) [Compound 365, 6-chloro-2-(5-fluoro-4-methylpyrimidin-2-yl)-1-[6-(morpholin-4-yl)pyridin-3-yl]-2,3,4,9-tetrahydro-1H-pyrido[3,4-b]indole] the value was 8 nM; for `Fc1cnc(N2CCc3c([nH]c4ccc(Cl)c(F)c34)C2c2ccc(Cl)cc2)nc1` (centres unmarked) [Compound 26, 6-chloro-1-(4-chlorophenyl)-5-fluoro-2-(5-fluoropyrimidin-2-yl)-2,3,4,9-tetrahydro-1H-pyrido[3,4-b]indole], 18.9 nM. As to `Cc1ccc([C@@H]2c3[nH]c4ccc(Cl)cc4c3CCN2c2ncc(F)c(C)n2)c(F)c1F` [Compound 187, (1R)-6-chloro-1-(2,3-difluoro-4-methylphenyl)-2-(5-fluoro-4-methylpyrimidin-2-yl)-2,3,4,9-tetrahydro-1H-pyrido[3,4-b]indole], the IC50 worked out at 20.3 nM. `Cc1ccc([C@H]2c3[nH]c4ccc(Cl)cc4c3CCN2c2nc(C)c(F)c(C)n2)cc1` [Compound 395, (1S)-6-chloro-2-(5-fluoro-4,6-dimethylpyrimidin-2-yl)-1-(4-methylphenyl)-2,3,4,9-tetrahydro-1H-pyrido[3,4-b]indole] had an IC50 of 4.4 nM. As for `Cc1ccc(C2c3[nH]c4ccc(Cl)cc4c3CCN2c2nccc(Cl)n2)cc1` (centres unmarked) [Compound 10, 6-chloro-2-(4-chloropyrimidin-2-yl)-1-(4-methylphenyl)-2,3,4,9-tetrahydro-1H-pyrido[3,4-b]indole], the IC50 turned out to be 4.1 nM. `Fc1cc(N2CCOCC2)ccc1C1c2[nH]c3ccc(Cl)cc3c2CCN1c1nccc(C(F)(F)F)n1` (centres unmarked) [Compound 277, 6-chloro-1-[2-fluoro-4-(morpholin-4-yl)phenyl]-2-[4-(trifluoromethyl)pyrimidin-2-yl]-2,3,4,9-tetrahydro-1H-pyrido[3,4-b]indole] came in with an IC50 of 5.4 nM. The IC50 values of the last two compounds are within 1.5-fold of each other. Consider `Cc1ccnc(N2CCc3c([nH]c4cc(F)c(Cl)cc34)C2c2ccc(C)c(F)c2F)n1` (centres unmarked) [Compound 139, 6-chloro-1-(2,3-difluoro-4-methylphenyl)-7-fluoro-2-(4-methylpyrimidin-2-yl)-2,3,4,9-tetrahydro-1H-pyrido[3,4-b]indole], for which half-maximal inhibition (IC50) was put at 3.6 nM. This IC50 is about 1.5-fold lower than that of the compound before. Regarding `Cc1ccc(C2c3[nH]c4cc(F)c(Cl)cc4c3CCN2c2nc(C(F)(F)F)cc(C(F)(F)F)n2)c(F)c1F` (centres unmarked) [Compound 155, 2-[4,6-bis(trifluoromethyl)pyrimidin-2-yl]-6-chloro-1-(2,3-difluoro-4-methylphenyl)-7-fluoro-2,3,4,9-tetrahydro-1H-pyrido[3,4-b]indole], the IC50 was determined as 0.5 nM.

`FC(F)(F)c1ccnc(N2CCc3c([nH]c4ccc(Cl)cc34)C2c2cnc(N3CC4(COC4)C3)nc2)n1` (centres unmarked) [Compound 391, 6-chloro-1-[2-(2-oxa-6-azaspiro[3.3]heptan-6-yl)pyrimidin-5-yl]-2-[4-(trifluoromethyl)pyrimidin-2-yl]-2,3,4,9-tetrahydro-1H-pyrido[3,4-b]indole] yielded an IC50 of 5.7 nM. For `Oc1cc(Cl)ccc1C1c2[nH]c3ccc(Cl)cc3c2CCN1c1nccc(C(F)(F)F)n1` (centres unmarked) [Compound 222, 5-chloro-2-{6-chloro-2-[4-(trifluoromethyl)pyrimidin-2-yl]-2,3,4,9-tetrahydro-1H-pyrido[3,4-b]indol-1-yl}phenol] the value was 3.5 nM; for `Cc1cc(C)nc(N2CCc3c([nH]c4ccc(Cl)c(F)c34)C2c2ccc(C)c(F)c2F)n1` (centres unmarked) [Compound 205, 6-chloro-1-(2,3-difluoro-4-methylphenyl)-2-(4,6-dimethylpyrimidin-2-yl)-5-fluoro-2,3,4,9-tetrahydro-1H-pyrido[3,4-b]indole], 0.7 nM; for `Cc1cc(C(F)(F)F)nc(N2CCc3c([nH]c4cc(F)c(Cl)cc34)C2c2ccc(C)c(F)c2F)n1` (centres unmarked) [Compound 148, 6-chloro-1-(2,3-difluoro-4-methylphenyl)-7-fluoro-2-[4-methyl-6-(trifluoromethyl)pyrimidin-2-yl]-2,3,4,9-tetrahydro-1H-pyrido[3,4-b]indole], 0.9 nM. For `C[C@@H]1CN(c2ncc([C@H]3c4[nH]c5ccc(Cl)cc5c4CCN3c3nc(C(F)(F)F)cc(C(F)(F)F)n3)cn2)C[C@H](C)N1` [Compound 503, (1S)-2-[4,6-bis(trifluoromethyl)pyrimidin-2-yl]-6-chloro-1-{2-[(3R,5S)-3,5-dimethylpiperazin-1-yl]pyrimidin-5-yl}-2,3,4,9-tetrahydro-1H-pyrido[3,4-b]indole] the value was 7.3 nM; for `COc1ccc2[nH]c3c(c2c1)CCN(c1nccc(C(F)(F)F)n1)C3c1cnc(N2CCOCC2)nc1` (centres unmarked) [Compound 302, 6-methoxy-1-[2-(morpholin-4-yl)pyrimidin-5-yl]-2-[4-(trifluoromethyl)pyrimidin-2-yl]-2,3,4,9-tetrahydro-1H-pyrido[3,4-b]indole], 7 nM.

In turn, `Cc1ccnc(N2CCc3c([nH]c4cc(F)c(Cl)cc34)C2c2ccc(C(F)(F)F)cc2)n1` (centres unmarked) [Compound 81, 6-chloro-7-fluoro-2-(4-methylpyrimidin-2-yl)-1-[4-(trifluoromethyl)phenyl]-2,3,4,9-tetrahydro-1H-pyrido[3,4-b]indole] had an IC50 of 40.1 nM.
